According to patent US20050169964A1, “Antibiotic calcium phosphate coating” (Howmedica Osteonics Corp., priority 2001, published 2005):

B1: OP-1® Osteogenic graft material: Osteogenic protein-1, a 36 kD homodimer protein in the TGI-β super-family; a bone morphogenic protein (protein, UniProt P18075 293-431, looked up)
Bone morphogenetic protein 7: STGSKQRSQNRSKTPKNQEALRMANVAENSSSDQRQACKKHELYVSFRDLGWQDWIIAPEGYAAYYCEGECAFPLNSYMNATNHAIVQTLVHFINPETVPKPCCAPTQLNAISVLYFDDSSNVILKKYRNMVVRACGCH
modifications: graft material
notes: Osteogenic protein-1, a 36 kD homodimer protein in the TGI-β super-family; a bone morphogenic protein

Tests used:
[1] = test system: Staphylococcus aureus (ATCC strain #6538); experiment: modified Kirby Bauer susceptibility model, zone of inhibition around antibiotic containing HA disk; assay type: cell-based; details: for Zone of Inhibition (mm): antibiotic absorbed into precipitated crystalline HA coating, Mueller-Hinton agar, 24 hr at 37° C.
Method: 1.2 Grams of tobramycin sulfate was dissolved in 12 milliliters of sterile deionized water (100 mg/ml). […] Ten (10) μl of solution was pipetted onto the surface of each of the […] coated disks and allowed to dry. […] The test coupons were then placed into a buffered saline at 37° C. immediately after the absorption process was completed. […] In the well-known Kirby Bauer Susceptibility Model test organisms were propagated and handled in accordance with ATCC recommendations for broth media, agar, and incubation specifications. […] Each seeded plate was challenged with both an antibiotic containing HA disk and a non-antibiotic containing HA disk, which served as a control. Samples were tested in duplicate (i.e., two plates per organism). Following incubation for 24 hr. at 37° C., the plates were examined for zones of inhibition around the disks. The zone of inhibition is defined as the distance between the test disk and the edge of bacterial growth. It is common for a hazy, or “ghost” zone to exist between the areas of complete inhibition and full bacterial growth. This “ghost” zone is the result of partial inhibition and is not included in the measurement of the zone of inhibition.

[2] = precipitation of OP-1 protein in solution; assay type: physicochemical
[3] = test system: adductor muscles (intramuscular pouch); assay type: in vivo, Long-Evans male rats
Excerpt: In-vivo study of OP-1® Osteogenic graft material coated implants: Freshly reconstituted OP-1® Osteogenic graft material in lactose solution was loaded onto each surface of the PA coated disk using sterile pipettes. The solution evenly spaced across the dry surface and was completely absorbed. Sixteen Long-Evans male rats with body weight 300-390 g were used in the study. The animals were anesthetized and an incision was made on the medial thigh to prepare intramuscular pouch within the adductor muscles for placement of the implant articles, on both contra-lateral limbs. A total of 32 implants were divided into 4 groups: (A) titanium disks; (B) titanium disks coated with PA, (C) titanium disks coated with PA plus OP-1® Osteogenic graft material (40 μg), (D) OP-1® Osteogenic graft material solution (40 μg). For Group C, the OP-1® Osteogenic graft material solution was directly pipeted on each Ti disk immediately before implantation. The solution was absorbed within 1 minute. For Group D, OP-1® Osteogenic graft material solution was dropped into the muscular pouch. The same amount of identical carrier solution for OP-1® Osteogenic graft material was loaded on disks of Groups A and B. After implantation, the pouch was closed with 3-0 chromic sutures, and the wound was closed in layers. The rats were housed individually and allowed unrestricted activity immediately after […]. All the animals were sacrificed 4 weeks postoperatively. The complete limb was disarticulated from hip joint and x-rayed. The implants with their surrounding tissues were retrieved. All implants were processed for undecalcified thin section histology using EXAKT technique. The slides were stained with Stevenel's blue/van Gieson's picrofuchsin method for histological analysis. Bone was stained in red color and fibrous tissue in blue. Half of the specimens of Group D were decalcified and embedded in paraffin. Sections were stained with hematoxylin and eosin.

[4] = binding of [125I]OP-1 to PA coated titanium disks (scintillation counting); details: FIG. 3 time course
Method: Materials and Methods—Preparation of implant test articles: Titanium alloy (Ti6A14V) disks/coupons 5 mm in diameter and 3 mm thick were coated both sides with PA coating using the method of Example I. The thickness of the coating surface was determined by SEM to be nominally 20 μm to 50 μm.
Determination of the binding capacity of OP-1® Osteogenic graft material: A pre-mixed blend of unlabelled OP-1® Osteogenic graft material with iodine [^125I] for tracking purposes was used. The OP-1® Osteogenic graft material in a lactose solution was pipetted on PA coated disks in triplicate. A range of OP-1® Osteogenic graft material incubation time and concentration treatment was applied to determine the time-course and binding capacity of the graft material on the PA coated disk. Following the incubation, each coupon was washed with lactose solution and the washes were collected in a scintillation vial. 10 ml of the scintillation cocktail was added to each test article and wash sample and the scintillation counts were measured in a liquid scintillation counter (LSC) to calculate the amount of OP-1® Osteogenic graft material bound to the PA coated disk.

Molecule	Zone of Inhibition (mm) [1] [mm]	also measured
N[C@@H](C(=O)N[C@@H]1C(=O)N2C(C(=O)O)=C(Cl)CS[C@H]12)c1ccccc1 [Cefaclor]	20.5	
Cn1nnnc1SCC1=C(C(=O)O)N2C(=O)[C@@H](NC(=O)[C@H](O)c3ccccc3)[C@H]2SC1 [Cefamandole]	25	
CC1=C(C(=O)O)N2C(=O)[C@@H](NC(=O)[C@H](N)c3ccccc3)[C@H]2SC1 [Cephalexin]	19	
CC(=O)OCC1=C(C(=O)O)N2C(=O)[C@@H](NC(=O)CCC[C@@H](N)C(=O)O)[C@H]2SC1 [Cephalosporin C]	11.5	
O=C(O)c1cn(C2CC2)c2cc(N3CCNCC3)c(F)cc2c1=O [Ciprofloxacin]	15.5	
NC[C@H]1O[C@H](O[C@H]2[C@H](O)[C@@H](O[C@H]3O[C@H](CO)[C@@H](O)[C@H](N)[C@H]3O)[C@H](N)C[C@@H]2N)[C@H](N)C[C@@H]1O [Tobramycin]	10	biological activity of released antibiotic ([1]; after absorption into the hydroxyapatite structure): remained biologically active
CN[C@H](CC(C)C)C(=O)N[C@H]1C(=O)N[C@@H](CC(N)=O)C(=O)N[C@H]2C(=O)N[C@H]3C(=O)N[C@H](C(=O)N[C@H](C(=O)O)c4cc(O)cc(O)c4-c4cc3ccc4O)[C@H](O)c3ccc(c(Cl)c3)Oc3cc2cc(c3O[C@@H]2O[C@H](CO)[C@@H](O)[C@H](O)[C@H]2O[C@H]2C[C@](C)(N)[C@H](O)[C@H](C)O2)Oc2ccc(cc2Cl)[C@H]1O [Vancomycin]	10.5	
Penicillin [Penicillin Benzathine]	22.5	
Penicillin [Penicillin Potassium Salt]	29	
Penicillin [Penicillin Procaine]	26.5	
Penicillin [Penicillin Sodium Salt]	28	
B1		concentration over which protein spontaneously precipitates [2]: over 5 mg/mL; extension of new bone surrounding the disks ([3]; Group C: titanium disks coated with PA plus OP-1 (40 μg), radiographic, 4 weeks): ≤ 10 mm; inflammation in the specimens ([3]; rat, in vivo): no inflammation; incidence of bone formation ([3]; the two groups treated with OP-1 (40 μg; Groups C and D), 4 weeks): 100%; time after loading at which maximal binding to PA is achieved [4]: 5 h
